Data published in US20030040485A1, “alpha/beta-adrenoceptors blockers and angiotensin converting enzyme inhibitors derived from hydroxyphenyl carboxylic acid and alcohol” (priority 2001, published 2003).

Assays:
[1] = tested on: blood pressure of normotensive male Wistar rats; assay: Heart rate and blood pressure in living rat (i.v., anaesthetized); format: in vivo; conditions: maximal decrease, 2 mg/kg i.v.
Source text: Normotensive Male Wistar rats (NTRs), weighing 200˜300 g were abdominal anaesthetized with pentobarbital sodium. Tracheal was cannulated to maintain normal respiration. Polyethylene tube was inserted into the left femoral vein to facilitate drug administration. A 3-way stopcock was used, with one end comnected to a syringe for drug injection, while the other end was connected to the syringe filled with physiological saline. The latter was used to prevent residual drugs in the polyethylene tube after injection, which would affect experimental accuracy.
The right femoral artery was also inserted with polyethylene, and a 3-way stopcock was used tool, where one end was connected to heparin solution to prevent embolism. The other end was comnected to a Disposable Diaphragm Dome, TA1019, and linked to a pressure transducer (Model P10EZ; Spectramed, Oxnard, Calif., USA). Through an amplifier, a recorder recorded the overall and average arterial pressure; heart rate to evaluate the effect of drug on blood pressure and heart rate. Different concentrations 0.1, 1.0, 2.0, 3.0 mg/kg of test compounds were given to the rats via femoral vein and the differences in the heart rate and blood pressure were compared. Table 2 shown maximal decrease of blood pressure affect of compounds after given 2.0 mg/kg test compounds to the rats.

[2] = molecular target: β1-adrenoceptor (left atrium) (Rattus norvegicus, UniProt P18090); assay: β1-adrenoceptor antagonism, left atrium, pA2; conditions: Schild plot, mean ± SEM of six to eight experiments
Sequence of β1-adrenoceptor (left atrium) (P18090 whole entry): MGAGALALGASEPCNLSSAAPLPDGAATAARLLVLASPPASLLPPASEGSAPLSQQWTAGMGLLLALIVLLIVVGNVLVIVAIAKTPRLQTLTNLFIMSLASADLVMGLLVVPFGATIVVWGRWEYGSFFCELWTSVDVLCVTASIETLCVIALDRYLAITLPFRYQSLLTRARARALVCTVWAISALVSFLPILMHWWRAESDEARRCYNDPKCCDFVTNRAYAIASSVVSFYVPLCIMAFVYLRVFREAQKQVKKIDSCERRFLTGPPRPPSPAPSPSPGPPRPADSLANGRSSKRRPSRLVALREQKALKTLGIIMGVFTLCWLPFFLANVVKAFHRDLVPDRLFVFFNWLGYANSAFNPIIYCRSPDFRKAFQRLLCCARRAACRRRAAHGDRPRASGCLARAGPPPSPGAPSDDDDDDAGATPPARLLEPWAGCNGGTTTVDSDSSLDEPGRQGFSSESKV

[3] = tested on: β2-adrenoceptor (trachea); assay: β2-adrenoceptor antagonism, trachea, pA2; parameters: species or system rat; conditions: Schild plot, mean ± SEM of six to eight experiments
Description: (§1) When the spontaneously beating rate of right atria reached a certain stability, cumulative administration of L-isoproterenol from 1×10^−10˜3×10^−10 M caused the heart rate to increase continuously, and a cumulative dose-response curve was obtained. Then the L-isoproterenol was thoroughly washed off with Kreb's solution to recover the right atria's heart rate stability. After the equilibrum was reached again for at least 60 minutes, different concentrations (10^−7, 10^−6, 10^−5 M) of compounds were added. 30 minutes later, cumulative administration of L-isoproterenol from 1×10^−10˜3×10^−10 M were carried out again, and another new cumulative dose-response curve was obtained. Administration of L-isoproterenol started from concentration 1×10^−10 M, and the concentration was raised 0.5 log each time for a total of six times. Cumulative administration interval was when the previous concentration reached its greatest effect, the next concentration would be immediately given. […] In other groups of rats, after separate administration of test compounds, their pA2 values were obtained.
pA2=−Log KB Log(DRADJ−1)=n log[B]−LogKB

α1-adrenoceptor (aorta) = assay: α-adrenoceptor antagonism, isolated rat aorta, pA2 vs norepinephrine; parameters: species or system Wistar rat; conditions: Schild plot, mean ± SEM of six to eight experiments
Description: Vascular α-adrenoceptor blocking activity was evaluated in the Wistar rat aorta preparation. Isolated rat aorta preparations were mounted in organ bath and suspended in Krebs solution at 37° C. […] or 75 mM KCl was added to the bath medium after a control concentration-response curve to norepinephrine had been obtained. The tissue was exposed to test compounds for 30 min before rechallenging with norepinephrine. Inhibitions were expressed as percentages of the maximum contraction obtained by the challenge of the tissues with norepinephrine. The 70 mM NaCl on 75 mM KCl solution may to replace with equimolar KCl, if necessary.
The methods published by Huang Y C. et. al. in J Cardiovasc Pharmacol.34, pp.10-20 (1999) and Drug Devel Res. 47, 77-89 (1999). Through referenced and modified method to evaluate, test compounds whether have α1-adrenergic and sertoninergic effect.
Isolated Wistar rat aorta preparations were mounted in organ bath and suspended in Krebs solution (NaCl, 118 mM, KCl, 4.8 mM; CaCl,2.5 mM; MgSO4,1.2 mM; K2PO4,1.2 Mm; […] Mm; glucose, 11 mM) at 37° C. under 1 g resting tension.
Upon balancing for 60 minutes, 10^−10-10^−4 M norepinephrine is administered directly from low concentration to high using 0.5 log unit to gradually increase until the maximum reaction is reached, and this act as the control unit. Then different concentrations of the synthetic testing compounds, 10^−7 M, 10^−6 M, or 10^−5M, are used, and upon 30 minutes of reaction, norepinephrine is used again to complete the cumulative dose. The EC50 value of blocking […] may be obtained from observation of the suppressing effects caused by different concentrations of the synthetic testing compound.
The equation is as follows: […]

[4] = tested on: β1-adrenoceptor (right atrium); assay: β1-adrenoceptor antagonism, spontaneously beating right atrium, pA2 vs L-isoproterenol; conditions: for β1/β2 Ratio: antilogarithm of difference between mean pA2 of right atrium and trachea; for β1 pA2 value, Right atrium: Schild plot, mean ± SEM of six to eight experiments
Description: The spontaneously-beating right atria was clipped on both end by heart shaped clips, where one end was fixed at the bottom of 10 ml of tissue bath made of physiological saline solution, and temperature maintained at 37° C. The other end of the atria was connected to a force transducer, and isometric contractions and beating rate of the right atria were recorded by COULBOURN AT-High-Speed VideoFigure. After the samples were given 250 mg of contractions and reach equilibrium the following experiments were carried out:
as §1
pA2=−Log KB Log(DRADJ−1)=n log[B]−LogKB

[5] = molecular target: T1, angiotensin converting enzyme (ACE) (Rattus norvegicus, UniProt P47820); assay: ACE inhibitory activity in rat serum (Hycor kit, [3H]-hippuryl-glycyl-glycine); format: biochemical; conditions: mean of three samples
T1 construct: from tissue; host or cells: rat serum
T1 sequence (P47820 36-1238 limits assumed): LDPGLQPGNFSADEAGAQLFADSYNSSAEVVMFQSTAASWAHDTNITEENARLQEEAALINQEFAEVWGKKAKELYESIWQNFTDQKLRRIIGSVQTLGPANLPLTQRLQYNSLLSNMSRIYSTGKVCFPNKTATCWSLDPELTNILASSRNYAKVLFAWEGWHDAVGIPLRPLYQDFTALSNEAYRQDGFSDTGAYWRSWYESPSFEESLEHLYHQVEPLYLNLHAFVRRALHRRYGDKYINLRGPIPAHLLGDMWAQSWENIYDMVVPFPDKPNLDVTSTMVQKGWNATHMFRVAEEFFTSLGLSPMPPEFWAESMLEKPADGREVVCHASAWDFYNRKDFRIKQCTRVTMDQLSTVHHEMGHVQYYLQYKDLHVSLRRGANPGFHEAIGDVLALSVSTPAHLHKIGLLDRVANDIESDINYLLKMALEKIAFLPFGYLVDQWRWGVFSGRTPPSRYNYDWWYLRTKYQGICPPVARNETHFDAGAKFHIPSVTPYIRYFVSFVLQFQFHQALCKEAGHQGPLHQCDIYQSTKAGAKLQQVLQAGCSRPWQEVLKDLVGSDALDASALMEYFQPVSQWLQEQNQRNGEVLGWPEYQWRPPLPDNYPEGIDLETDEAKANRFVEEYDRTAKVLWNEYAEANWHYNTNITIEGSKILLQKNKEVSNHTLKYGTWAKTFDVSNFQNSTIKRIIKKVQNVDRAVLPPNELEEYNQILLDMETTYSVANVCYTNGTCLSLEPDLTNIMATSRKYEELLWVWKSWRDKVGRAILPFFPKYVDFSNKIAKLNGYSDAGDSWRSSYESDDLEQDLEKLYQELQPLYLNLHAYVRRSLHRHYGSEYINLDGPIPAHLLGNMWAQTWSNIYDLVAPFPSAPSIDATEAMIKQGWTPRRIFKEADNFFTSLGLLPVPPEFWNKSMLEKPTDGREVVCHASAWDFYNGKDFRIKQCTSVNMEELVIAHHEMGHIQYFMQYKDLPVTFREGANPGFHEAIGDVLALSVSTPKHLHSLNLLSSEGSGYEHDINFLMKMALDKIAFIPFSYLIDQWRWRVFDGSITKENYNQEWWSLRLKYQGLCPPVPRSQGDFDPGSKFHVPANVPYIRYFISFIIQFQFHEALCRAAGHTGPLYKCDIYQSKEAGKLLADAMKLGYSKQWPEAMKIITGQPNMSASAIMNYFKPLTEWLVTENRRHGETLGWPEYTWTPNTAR
Description: ACE value in serum was determined by Hycor kit, rat serum were cultured in 37° C. of [^3H]-hippuryl-glycyl-glycine for 60 minutes. While [^3H]-hippuryl-glycyl-glycine contains three peptide. [^3H] hippuric acid was obtained when extracted of culture solution with ethyl acetate, the content be determined by spectrophotometer. The content in serum sample was as the control group after it was added with 10^−8M, 10^−7M, 10^−6M compounds, then dissolved in PBS.

[6] = molecular target: T2, angiotensin converting enzyme (ACE) (Rattus norvegicus, UniProt P47820); assay: ACE activity value on tissue (rat lung membrane, Hip-His-Leu, fluorometric); format: biochemical; conditions: mean of three samples
T2 construct: Centrifuged 250-300 mg lung tissue; from tissue; host or cells: rat lung membrane fraction
T2 sequence (P47820 36-1313): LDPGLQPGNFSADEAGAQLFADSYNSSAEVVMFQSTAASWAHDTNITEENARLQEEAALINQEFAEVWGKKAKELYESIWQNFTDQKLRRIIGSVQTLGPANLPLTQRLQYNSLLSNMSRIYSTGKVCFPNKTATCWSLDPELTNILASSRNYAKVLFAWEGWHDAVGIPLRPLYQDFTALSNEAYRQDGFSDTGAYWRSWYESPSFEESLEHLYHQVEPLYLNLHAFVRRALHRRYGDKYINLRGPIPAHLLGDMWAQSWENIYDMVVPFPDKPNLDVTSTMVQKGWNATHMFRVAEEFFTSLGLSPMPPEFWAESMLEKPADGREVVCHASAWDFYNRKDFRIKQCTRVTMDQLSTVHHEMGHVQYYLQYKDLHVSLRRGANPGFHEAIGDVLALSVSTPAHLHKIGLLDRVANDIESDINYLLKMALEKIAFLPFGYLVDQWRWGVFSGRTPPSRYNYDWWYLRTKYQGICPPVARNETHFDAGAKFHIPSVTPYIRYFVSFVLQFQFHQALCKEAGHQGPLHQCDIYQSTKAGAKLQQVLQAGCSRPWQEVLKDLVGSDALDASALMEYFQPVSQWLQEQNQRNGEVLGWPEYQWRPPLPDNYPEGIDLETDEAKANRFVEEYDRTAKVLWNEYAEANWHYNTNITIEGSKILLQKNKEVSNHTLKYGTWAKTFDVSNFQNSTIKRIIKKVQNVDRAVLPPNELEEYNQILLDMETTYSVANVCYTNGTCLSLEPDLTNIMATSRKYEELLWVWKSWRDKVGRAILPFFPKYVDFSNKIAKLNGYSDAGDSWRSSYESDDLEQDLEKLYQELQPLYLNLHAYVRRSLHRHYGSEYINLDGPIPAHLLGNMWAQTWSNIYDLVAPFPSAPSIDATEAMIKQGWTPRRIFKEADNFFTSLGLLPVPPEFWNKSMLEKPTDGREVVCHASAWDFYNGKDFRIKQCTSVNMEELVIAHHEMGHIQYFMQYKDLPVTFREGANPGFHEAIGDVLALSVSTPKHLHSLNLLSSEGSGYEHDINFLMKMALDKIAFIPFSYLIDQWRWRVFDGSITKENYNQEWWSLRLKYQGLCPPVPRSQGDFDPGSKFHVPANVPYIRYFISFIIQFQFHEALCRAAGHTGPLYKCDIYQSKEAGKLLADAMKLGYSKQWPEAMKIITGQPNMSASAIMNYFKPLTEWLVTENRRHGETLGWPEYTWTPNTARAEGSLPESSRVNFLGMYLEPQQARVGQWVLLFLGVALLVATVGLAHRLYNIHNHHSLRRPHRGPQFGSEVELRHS
Description: Centrifuged 250-300 mg lung tissue, 3 ml extracted liquid (10 mmol/L HEPES, 125 mmol/L NaCl, pH7.4) under 12000 g for 20 minutes at 4° C. by Teflon-glass homogenizer, the cell membrane was obtained. The 3 ml homogenized liquid was added into twice, before and after centrifuged. Then the Lowry's method was adopted to determine the protein content in the membrane. Mixing 15 minute of liquid and 30 mmol/L Hip-His-Leu solution at 37° C. Fluorometric was used to determine the Hippurate content. test compounds (10^−8M, 10^−7M, 10^−6M) dissolved in PBS normal saline and used as control group. Then ACE activity inhibition rate was determined.

## COc1cc(CO)ccc1OCC(O)CNC(C)(C)C (centres unmarked) [compound 2, Vanynolol]
[1]
  Decrease of blood pressure: 72 ± 2.5 mmHg
[2]
  β1 pA2 value, Left atrium: 6.84
[3]
  β2 pA2 value, Trachea: 6.61
α1-adrenoceptor (aorta)
  α1 pA2 value, Aorta: 7.23
[4]
  β1/β2 Ratio: 2.3
  β1 pA2 value, Right atrium: 6.67

## CC(CCc1ccccc1)NCC(O)c1ccc(O)c(C(N)=O)c1 (centres unmarked) [labetalol, reference compound]
[2]
  Kb: 28.8 nM
[3]
  β2 pA2 value, Trachea: 7.54
α1-adrenoceptor (aorta)
  α1 pA2 value, Aorta: 6.87
[4]
  β1/β2 Ratio: 2.3
  β1 pA2 value, Right atrium: 7.91

## 1-[(4 -Propenoic acid ethyl ester)phenoxy-3-amino]-propanol [compound 1]
[1]
  Decrease of blood pressure: 60 ± 4.7 mmHg
[2]
  β1 pA2 value, Left atrium: 6.92
[3]
  β2 pA2 value, Trachea: 6.43
[4]
  β1/β2 Ratio: 2.1
  β1 pA2 value, Right atrium: 6.83

## CC(C)NCC(O)COc1ccc(CC(N)=O)cc1 (centres unmarked) [atenolol, reference compound]
[3]
  β2 pA2 value, Trachea: 5.81
α1-adrenoceptor (aorta)
  α1 pA2 value, Aorta: <5.00
[4]
  β1 pA2 value, Right atrium: 7.34

## CCOC(=O)[C@H](CCc1ccccc1)N[C@@H](C)C(=O)N1CCC[C@H]1C(=O)O [Enalapril, reference compound]
[5]; 10^−6M
  inhibition at 1 µM: 99%
[5]; 10^−7M
  inhibition at 0.1 µM: 94%
[5]; 10^−8M
  inhibition at 0.01 µM: 54%
[6]; 10^−6M, read-out: Inhibitory activity of ACE, In Rat lung
  inhibition at 1 µM: 98%
[6]; 10^−7M, read-out: Inhibitory activity of ACE, In Rat lung
  inhibition at 0.1 µM: 93%
[6]; 10^−8M
  Inhibitory activity of ACE, In Rat lung: 51%

## CCOC(=O)CCc1ccc(OCC(O)CNCCOc2ccccc2OC)cc1 (centres unmarked) [compound 3, Propiodilol]
[1]
  Decrease of blood pressure: 56 ± 3.8 mmHg
[2]
  β1 pA2 value, Left atrium: 6.78
[3]
  β2 pA2 value, Trachea: 6.71
[4]
  β1/β2 Ratio: 1.9
  β1 pA2 value, Right atrium: 6.74

## COc1ccccc1OCCNCC(O)COc1ccc(CO)cc1OC (centres unmarked) [compound 4, Vanydilol]
[1]
  Decrease of blood pressure: 83 ± 9.1 mmHg
[2]
  β1 pA2 value, Left atrium: 6.76
[3]
  β2 pA2 value, Trachea: 6.69
α1-adrenoceptor (aorta)
  α1 pA2 value, Aorta: 7.89
[4]
  β1/β2 Ratio: 1.6
  β1 pA2 value, Right atrium: 6.72

## CC(C)NCC(O)COc1cccc2ccccc12 (centres unmarked) [propranolol, reference compound]
[3]
  β2 pA2 value, Trachea: 8.07
α1-adrenoceptor (aorta)
  α1 pA2 value, Aorta: <5.00
